Experimental data from patent US20200069552A1, “COSMETIC AND/OR DERMATOLOGICAL COMPOSITION, AND USES THEREOF IN THE COSMETIC FIELD AND IN THE ADJUVANT TREATMENT OF DERMATOLOGICAL PATHOLOGIES” (ISTITUTO GANASSINI S.P.A. DI RICERCHE BIOCHIMICHE, priority 2017, published 2020).

Test: Viscosity at 25° C. with a Brookfield viscometer DV-I
Assay type: physicochemical

CC(=O)Oc1c(C)c(C)c2c(c1C)CCC(C)(CCC[C@H](C)CCC[C@H](C)CCCC(C)C)O2 (some centres unmarked) [Comp A, Vitamin E acetate]
viscosity, in words (25° C.): extremely fluid
Viscosity at 25° C. (Rotor G = 2, 10 rpm): 3200 cP
